According to US20090143279A1 (priority 2007, published 2009):
Where two headings read alike, the source gives them in different places.

Tests used:
[1] = system: cellular dehydrogenase activity; settings: for MTT (composite Z-score): normalized score vs mock-treated (DMSO) wells
[2] = system: mtOXPHOS transcripts; type: cell-based, mouse; settings: for mitoOX (composite Z-score): normalized score vs mock-treated (DMSO) wells
[3] = system: cytochrome c; type: cell-based, mouse; settings: for cyt c (composite Z-score): normalized score vs mock-treated (DMSO) wells
[4] = system: nuOXPHOS transcripts; type: cell-based, mouse; settings: for nucOX (composite Z-score): normalized score vs mock-treated (DMSO) wells
[5] = system: C2C12 myotubes; settings: for Viability (composite Z-score): normalized score vs mock-treated (DMSO) wells
[6] = system: reactive oxygen species; type: cell-based, mouse; settings: for ROS (composite Z-score): normalized score vs mock-treated (DMSO) wells
[7] = system: mitochondrial membrane potential; type: cell-based, mouse; settings: for ΔΨm (composite Z-score): normalized score vs mock-treated (DMSO) wells
[8] = system: OXPHOS gene expression; type: cell-based, mouse; settings: for GE-HTS (composite Z-score): normalized score vs mock-treated (DMSO) wells
[9] = 20 μM, composite Z-score vs DMSO
[10] = composite Z-score vs mock-treated (DMSO) wells, Conc 20 μM
[11] = normalized composite Z-score vs mock-treated (DMSO) wells, Conc 20 μM
[12] = composite Z-score vs DMSO, Conc 20 μM
[13] = Table 7, C2C12 myotubes, 48 h, composite Z-score
[14] = composite Z-score vs DMSO wells, Conc 20 μM

COc1cc(/C=C/C(=O)O)cc(OC)c1OC [sinapic acid methyl ether]
MTT [1]: −0.736
mitoOX [2]: −1.015
cyt c [3]: 0.207
nucOX [4]: −1.058
Viability [5]: −0.934
ROS [6]: 0.722
ΔΨm [7]: −0.716
GE-HTS [8]: −1.103

O=C(COc1ccc(Cl)cc1)N1CCN(Cc2ccc3c(c2)OCO3)CC1 [fipexide]
MTT [1]: −0.924
MTT [1, 9]: −0.186
mitoOX [2]: 0.155
mitoOX [2, 9]: −0.657
cyt c [3]: 0.573
cyt c [3, 9]: −0.071
nucOX [4]: 0.163
nucOX [4, 9]: −0.010
Viability [5]: −0.617
Viability [5, 9]: 0.721
ROS [6]: 0.307
ROS [6, 9]: 0.873
ΔΨm [7]: −0.624
ΔΨm [7, 9]: −0.354
GE-HTS [8]: 0.169
GE-HTS [8, 9]: −0.241

CCC(=O)OC1[C@@H]2CC3=C4CC(=O)O[C@@H](c5ccoc5)[C@]4(C)CCC3[C@@](C)(C2=O)[C@@H](CC(=O)OC)C1(C)C (stereo partly shown) [khayasin C]
MTT [1, 10]: −1.678
mitoOX [2, 10]: 1.232
cyt c [3, 10]: −0.654
nucOX [4, 10]: 0.033
Viability [5, 10]: −1.021
ROS [6, 10]: −0.078
ΔΨm [7, 10]: −0.095
GE-HTS [8, 10]: 0.442

C=C1CCC(C2CC(=O)OC2=O)C(=O)CCC2C1CC2(C)C (stereo not shown)
MTT [1, 11]: −0.968
mitoOX [2, 11]: −1.046
cyt c [3, 11]: 0.345
nucOX [4, 11]: −1.009
Viability [5, 11]: −0.749
ROS [6, 11]: 0.012
ΔΨm [7, 11]: −0.249
GE-HTS [8, 11]: −1.109

CC[C@@H](C)C(=O)O[C@H]1[C@H](O)[C@H]2[C@@H](CN3C[C@@H](C)CC[C@H]3[C@@]2(C)O)[C@@H]2C[C@]34O[C@]5(O)[C@@H](OC(=O)[C@@](C)(O)CC)CC[C@@]3(C)[C@@H]5[C@@H](OC(C)=O)[C@@H](OC(C)=O)[C@H]4[C@@]21O [protoveratrine A]
MTT [1, 12]: −0.100
mitoOX [2, 12]: −1.108
cyt c [3, 12]: 1.155
nucOX [4, 12]: −0.978
Viability [5, 12]: 0.243
ROS [6, 12]: −0.267
ΔΨm [7, 12]: 0.394
GE-HTS [8, 12]: −1.106

CC(=O)O[C@@H]1CC2C(C)(C)CCC[C@]2(C)C2CC[C@]3(C)C(=CC(=O)O[C@H]3c3ccoc3)[C@@]21C (stereo partly shown) [deoxodeoxydihydrogedunin]
MTT [1, 10]: −0.551
mitoOX [2, 10]: −1.397
cyt c [3, 10]: 0.837
nucOX [4, 10]: −1.370
Viability [5, 10]: 0.876
ROS [6, 10]: 0.995
ΔΨm [7, 10]: 0.941
GE-HTS [8, 10]: −1.452

CC(=O)OCC(COC(C)=O)OC(C)=O [triacetin]
MTT [1, 9]: −0.717
mitoOX [2, 9]: −0.569
cyt c [3, 9]: −0.264
nucOX [4, 9]: −0.187
Viability [5, 9]: −0.842
ROS [6, 9]: 0.431
ΔΨm [7, 9]: −0.571
GE-HTS [8, 9]: −0.327

NC(=O)c1ccc[n+]([C@@H]2O[C@H](COP(=O)([O-])OP(=O)(O)OC[C@H]3O[C@@H](n4cnc5c(N)ncnc54)[C@H](OP(=O)(O)O)[C@@H]3O)[C@@H](O)[C@H]2O)c1
MTT [1, 9]: −1.286
mitoOX [2, 9]: −0.615
cyt c [3, 9]: 0.101
nucOX [4, 9]: −0.307
Viability [5, 9]: −0.562
ROS [6, 9]: −0.038
ΔΨm [7, 9]: −0.582
GE-HTS [8, 9]: −0.424

CC(=O)O[C@H]1CC[C@]2(C)[C@H]3C(=O)C=C4[C@@H]5[C@@H](C)[C@H](C)CC[C@]5(C(=O)O)CC[C@@]4(C)[C@]3(C)CC[C@H]2C1(C)C [11-oxoursolic acid acetate]
MTT [1, 11]: −1.214
mitoOX [2, 11]: −0.027
cyt c [3, 11]: −1.393
nucOX [4, 11]: −0.304
Viability [5, 11]: 1.094
ROS [6, 11]: 0.280
ΔΨm [7, 11]: −0.524
GE-HTS [8, 11]: −0.240

COc1ccccc1-c1cc(=O)c2c(OC)cccc2o1 [5,2′-dimethoxyflavone]
MTT [1, 11]: −0.219
mitoOX [2, 11]: −0.607
cyt c [3, 11]: 1.046
nucOX [4, 11]: −0.881
Viability [5, 11]: −0.228
ROS [6, 11]: 0.645
ΔΨm [7, 11]: 1.002
GE-HTS [8, 11]: −0.862

COC(=O)C[C@H]1C(C)(C)[C@@H](O)[C@@H]2CC3=C4CC(O)O[C@@H](c5ccoc5)[C@]4(C)CCC3[C@@]1(C)C2=O (stereo partly drawn) [3,16-dideoxymexicanolide-3beta-diol]
MTT [1, 11]: −1.091
mitoOX [2, 11]: −0.202
cyt c [3, 11]: −0.130
nucOX [4, 11]: 0.282
Viability [5, 11]: −0.384
ROS [6, 11]: 0.587
ΔΨm [7, 11]: 0.154
GE-HTS [8, 11]: 0.150

COc1cccc2c1C(=O)c1c(O)c3c(c(O)c1C2=O)C[C@@](O)(C(C)=O)C[C@@H]3O[C@H]1C[C@H](N)[C@H](O)[C@H](C)O1 [Daunorubicin, reference compound]
MTT [1]: −5.009
mitoOX [2]: 1.373
mito-OXPHOS Z [2, 13]: 1.37
cyt c [3]: −3.722
nucOX [4]: −2.094
nucOXPHOS Z [4, 13]: −2.09
Viability [5]: −3.547
ROS [6]: −2.398
ΔΨm [7]: −2.337
GE-HTS [8]: −1.008

CN1CCCN=C1/C=C/c1cccs1 [pyrantel pamoate]
MTT [1]: −0.189
mitoOX [2]: −0.327
cyt c [3]: 0.640
nucOX [4]: −0.500
Viability [5]: −1.934
ROS [6]: 0.592
ΔΨm [7]: −2.829
GE-HTS [8]: −0.468

CC(C)CCC[C@@H](C)[C@H]1CC[C@H]2[C@@H]3CCC4CCCC[C@]4(C)[C@H]3CC[C@]12C (stereo partly shown) [cholestane]
MTT [1, 12]: −1.057
mitoOX [2, 12]: −0.640
cyt c [3, 12]: 0.043
nucOX [4, 12]: −0.651
Viability [5, 12]: 0.941
ROS [6, 12]: 0.155
ΔΨm [7, 12]: −0.945
GE-HTS [8, 12]: −0.678

CC(C)(O)[C@@H]1[C@H]2OC(=O)[C@@H]1[C@]1(O)C[C@H]3O[C@]34C(=O)O[C@H]2[C@]14C [picrotin]
MTT [1, 9]: −1.155
mitoOX [2, 9]: −0.167
cyt c [3, 9]: 0.184
nucOX [4, 9]: 0.404
Viability [5, 9]: −0.278
ROS [6, 9]: 0.917
ΔΨm [7, 9]: −0.167
GE-HTS [8, 9]: 0.253

COc1ccc(-c2c(O)c3c(OC)c4c(cc3oc2=O)OC(C)(C)C=C4)cc1 [robustic acid, reference compound]
MTT (composite Z-score) ([1]; Conc 20 μM): −1.831
mitoOX (composite Z-score) ([2]; Conc 20 μM): −0.587
cyt c (composite Z-score) ([3]; Conc 20 μM): −0.459
nucOX (composite Z-score) ([4]; Conc 20 μM): −0.973
Viability (composite Z-score) ([5]; Conc 20 μM): −1.213
ROS (composite Z-score) ([6]; Conc 20 μM): −0.119
ΔΨm (composite Z-score) ([7]; Conc 20 μM): −1.086
GE-HTS (composite Z-score) ([8]; Conc 20 μM): −0.930

CCCOc1ccccc1-c1nc2nn[nH]c2c(=O)[nH]1 [zaprinast]
MTT [1, 14]: −1.175
mitoOX [2, 14]: −0.234
cyt c [3, 14]: 0.226
nucOX [4, 14]: 0.220
Viability [5, 14]: 0.602
ROS [6, 14]: −0.482
ΔΨm [7, 14]: −0.347
GE-HTS [8, 14]: 0.076

CCCc1occc(=O)c1CCO [2-propyl-3-hydroxyethylenepyran-4-one]
MTT (composite Z-score) ([1]; Conc 20 μM): −0.906
mitoOX (composite Z-score) ([2]; Conc 20 μM): 0.202
cyt c (composite Z-score) ([3]; Conc 20 μM): −0.100
nucOX (composite Z-score) ([4]; Conc 20 μM): 0.870
Viability (composite Z-score) ([5]; Conc 20 μM): 0.162
ROS (composite Z-score) ([6]; Conc 20 μM): 0.195
ΔΨm (composite Z-score) ([7]; Conc 20 μM): −0.741
GE-HTS (composite Z-score) ([8]; Conc 20 μM): 0.682
